Like-named read-outs stand apart in the source and are kept apart here.
Tests used:
[1] = test system: late components of human complement (C3-C9); experiment: Test Code 035 (C3-C9 inhibitor), lysis of EAC 142; type: biochemical; details: serial twofold dilution assay; higher well number indicates higher activity
Text: (§1) An active inhibitor protects C2 from C1 and C4; (ii) Test Code 035 (C3-C9 inhibitor)--This test determines the ability of the late components of human complement (C3-C9) to lyse EAC 142 in the presence of approriate dilutions of the test compound. An active inhibitor protects EAC 142 from lysis by human C3-C9; (iii) Test Code 036 (C-Shunt inhibitor)--In this test human erythrocytes rendered fragile are lysed in autologous serum via the shunt pathway activated by cobra venom factor in the presence of appropriate dilutions of the test compound. Inhibition of the shunt pathway results in failure of lysis; (iv) Forssman Vasculitis Test--Here, the well known complement dependent lesion, Forssman vasculitis, is produced in guinea pigs by intradermal injection of rabbit anti-Forssman antiserum. […] Percent inhibition is calculated by comparison with simultaneous controls. […]

[2] = test system: complement activity of serum; experiment: Guinea Pig Intraperitoneal Test (GPIP), serum complement activity; type: in vivo; details: Cavia porcellus, ip, 200 mg./kg. i.p.
Text: An active inhibitor protects C2 from C1 and C4; (ii) Test Code 035 (C3-C9 inhibitor)--This test determines the ability of the late components of human complement (C3-C9) to lyse EAC 142 in the presence of approriate dilutions of the test compound. An active inhibitor protects EAC 142 from lysis by human C3-C9; (iii) Test Code 036 (C-Shunt inhibitor)--In this test human erythrocytes rendered fragile are lysed in autologous serum via the shunt pathway activated by cobra venom factor in the presence of appropriate dilutions of the test compound. Inhibition of the shunt pathway results in failure of lysis; (iv) Forssman Vasculitis Test--Here, the well known complement dependent lesion, Forssman vasculitis, is produced in guinea pigs by intradermal injection of rabbit anti-Forssman antiserum. The lesion is measured in terms of diameter, edema and hemorrhage and the extent to which a combined index of these is inhibited by prior intraperitoneal injection of the test compound at 200 mg./kg. is then reported, unless otherwise stated; (v) Forssman Shock Test--Lethal shock is produced in guinea pigs by an i.v. injection of anti-Forssman antiserum and the haromic mean death time of treated guinea pigs is compared with that of simultaneous controls; (vi) Complement Level Reduction Test--In this test, the above dosed guinea pigs, or others, are bled for serum and the complement level is determined in undiluted serum by the capillary tube method of U.S. Pat. No. 3,876,376 and compared to undosed control guinea pigs; (vii) Cap 50 Test--Here, appropriate amounts of the test compound are added to a pool of guinea pig serum in vitro, after which the undiluted serum capillary tube assay referred to above is run. The concentration of compound inhibiting 50% is reported; (viii) Guinea Pig Intraperitoneal Test (GPIP)--Guinea Pigs weighing about 300 g. are dosed intraperitoneally (i.p.) with 200 mg./kg. of the test compound dissolved in saline and adjusted to pH 7-8. […] Percent inhibition is calculated by comparison with simultaneous controls. […]

shunt pathway = experiment: Test Code 036 (C-Shunt inhibitor), lysis of fragile human erythrocytes in autologous serum, cobra venom factor activated; type: cell-based; details: serial twofold dilution assay; higher well number indicates higher activity
Text: as §1

activated human C1 = activated human C1 (Homo sapiens, UniProt P09871); experiment: Test Code 026 (C1 inhibitor); type: biochemical; details: serial twofold dilution assay; higher well number indicates higher activity
Text: as §1

For O=C([O-])c1cc(NS(=O)(=O)c2cc(S(=O)(=O)Nc3cc(C(=O)[O-])c(C(=O)[O-])c(C(=O)[O-])c3)c3c(Cl)ccc(S(=O)(=O)Nc4cc(C(=O)[O-])c(C(=O)[O-])c(C(=O)[O-])c4)c3c2)cc(C(=O)[O-])c1C(=O)[O-].[Na+].[Na+].[Na+].[Na+].[Na+].[Na+].[Na+].[Na+].[Na+] [5,5',5"-[(8-chloro-1,3,5-naphthalenetriyl)tris(sulfonylimino)]-tri-1,2,3-benzenetricarboxylic acid, nonasodium salt], the “C-Late 035 Wells” value [1] was “+2 Wells”, the inhibition at 200 mg/kg ([2]; 0.5 h, blood sample 30 minutes after injection, read-out: In Vivo Activity (Guinea Pig) % Inhibition Intraperitoneal, 30 minutes) was -75% and the inhibition at 200 mg/kg ([2]; 1 h, blood sample 60 minutes after injection, read-out: In Vivo Activity (Guinea Pig) % Inhibition Intraperitoneal, 60 minutes) was -69%. The inhibition at 200 mg/kg ([2]; 2 h, blood sample 120 minutes after injection, read-out: In Vivo Activity (Guinea Pig) % Inhibition Intraperitoneal, 120 minutes) was 75%, the “Shunt Inhibition 036 Wells” value (shunt pathway) was “+5 Wells” and the “Cl 026 Wells” value (activated human C1) was “+7 Wells”.

From patent US4282375A, “Halogenated-naphthalenetriyltris(sulfonylimino)-aryl multicarboxylic acids and salts thereof” (priority 1979, dated 1981)
